# According to the kinase profiling compilation of Christmann-Franck et al. (2016):
# Columns and labels:
# Assay in all cases: KINOMEscan competition binding
# Conditions in all cases: compound 10.0 µM
# [1] = biological target: EPHA4 (human) (UniProt P54764)
# [2] = biological target: MARK4 (human) (UniProt Q96L34)
# [3] = biological target: EPHB3 (human) (UniProt P54753)
# [4] = biological target: MATK (human) (UniProt P42679)
# [5] = biological target: HCK (human) (UniProt P08631)
# [6] = biological target: MAPK11 (human) (UniProt Q15759)
# [7] = biological target: ACVR1 (human) (UniProt Q04771)
# Chain of ACVR1 (human) (Q04771 whole entry, looked up): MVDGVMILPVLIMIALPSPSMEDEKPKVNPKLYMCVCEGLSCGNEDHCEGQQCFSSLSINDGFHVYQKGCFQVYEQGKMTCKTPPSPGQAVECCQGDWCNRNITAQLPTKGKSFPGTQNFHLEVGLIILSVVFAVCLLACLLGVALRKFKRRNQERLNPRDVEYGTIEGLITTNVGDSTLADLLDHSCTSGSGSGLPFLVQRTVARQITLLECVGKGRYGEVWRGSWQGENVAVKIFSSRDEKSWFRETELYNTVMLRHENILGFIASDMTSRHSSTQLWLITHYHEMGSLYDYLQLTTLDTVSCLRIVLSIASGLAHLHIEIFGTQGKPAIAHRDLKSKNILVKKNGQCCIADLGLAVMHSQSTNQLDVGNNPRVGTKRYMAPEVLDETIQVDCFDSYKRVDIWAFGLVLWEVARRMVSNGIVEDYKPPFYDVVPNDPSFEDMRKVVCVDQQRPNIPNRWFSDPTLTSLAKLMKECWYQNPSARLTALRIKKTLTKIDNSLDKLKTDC
# [8] = biological target: CAMKK2 (human) (UniProt Q96RR4)
# [9] = biological target: PRKCD (human) (UniProt Q05655)
# [10] = biological target: MAP4K5 (human) (UniProt Q9Y4K4)
# [11] = biological target: EPHA2 (human) (UniProt P29317)
# [12] = biological target: PTK2 (human) (UniProt Q05397)
# [13] = biological target: ERBB2 (human) (UniProt P04626)
# [14] = biological target: CAMK4 (human) (UniProt Q16566)
# [15] = biological target: NUAK2 (human) (UniProt Q9H093)
# [16] = biological target: PIK3CB (human) (UniProt P42338)
# [17] = biological target: MAP3K3 (human) (UniProt Q99759)
# [18] = biological target: CSNK1G2 (human) (UniProt P78368)
# Chain of CSNK1G2 (human) (P78368 whole entry, looked up): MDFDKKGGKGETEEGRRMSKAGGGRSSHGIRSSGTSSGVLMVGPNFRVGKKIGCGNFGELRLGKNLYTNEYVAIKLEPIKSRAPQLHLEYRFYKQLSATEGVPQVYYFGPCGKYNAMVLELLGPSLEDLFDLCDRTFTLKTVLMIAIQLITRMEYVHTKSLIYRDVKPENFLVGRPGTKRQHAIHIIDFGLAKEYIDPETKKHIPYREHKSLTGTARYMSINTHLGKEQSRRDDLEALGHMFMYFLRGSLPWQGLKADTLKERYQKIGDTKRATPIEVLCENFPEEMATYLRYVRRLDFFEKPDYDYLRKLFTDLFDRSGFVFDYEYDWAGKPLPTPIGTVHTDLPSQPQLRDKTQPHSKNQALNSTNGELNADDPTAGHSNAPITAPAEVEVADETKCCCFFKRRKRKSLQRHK
# [19] = biological target: CSNK1E (human) (UniProt P49674)
# [20] = biological target: ITK (human) (UniProt Q08881)
# [21] = biological target: ACVRL1 (human) (UniProt P37023)
# Chain of ACVRL1 (human) (P37023 whole entry, looked up): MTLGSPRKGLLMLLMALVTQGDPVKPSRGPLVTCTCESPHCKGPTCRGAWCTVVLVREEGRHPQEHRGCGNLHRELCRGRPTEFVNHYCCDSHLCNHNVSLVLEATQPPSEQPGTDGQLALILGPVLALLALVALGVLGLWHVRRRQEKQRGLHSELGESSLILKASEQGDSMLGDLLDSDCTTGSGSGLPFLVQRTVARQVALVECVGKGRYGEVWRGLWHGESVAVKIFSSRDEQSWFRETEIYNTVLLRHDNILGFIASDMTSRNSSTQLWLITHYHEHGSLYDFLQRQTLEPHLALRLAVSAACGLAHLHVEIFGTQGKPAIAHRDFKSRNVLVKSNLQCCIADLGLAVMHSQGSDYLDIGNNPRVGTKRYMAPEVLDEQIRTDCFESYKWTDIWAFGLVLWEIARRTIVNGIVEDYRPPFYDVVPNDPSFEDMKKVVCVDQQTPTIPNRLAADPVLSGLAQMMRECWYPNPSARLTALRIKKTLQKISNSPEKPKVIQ
# [22] = biological target: MARK1 (human) (UniProt Q9P0L2)
# [23] = biological target: GRK1 (human) (UniProt Q15835)
# [24] = biological target: MAP3K2 (human) (UniProt Q9Y2U5)
# [25] = biological target: STK36 (human) (UniProt Q9NRP7)
# [26] = biological target: MAST1 (human) (UniProt Q9Y2H9)
# [27] = biological target: CLK2 (human) (UniProt P49760)
# [28] = biological target: CDK14 (human) (UniProt O94921)
# Chain of CDK14 (human) (O94921 whole entry, looked up): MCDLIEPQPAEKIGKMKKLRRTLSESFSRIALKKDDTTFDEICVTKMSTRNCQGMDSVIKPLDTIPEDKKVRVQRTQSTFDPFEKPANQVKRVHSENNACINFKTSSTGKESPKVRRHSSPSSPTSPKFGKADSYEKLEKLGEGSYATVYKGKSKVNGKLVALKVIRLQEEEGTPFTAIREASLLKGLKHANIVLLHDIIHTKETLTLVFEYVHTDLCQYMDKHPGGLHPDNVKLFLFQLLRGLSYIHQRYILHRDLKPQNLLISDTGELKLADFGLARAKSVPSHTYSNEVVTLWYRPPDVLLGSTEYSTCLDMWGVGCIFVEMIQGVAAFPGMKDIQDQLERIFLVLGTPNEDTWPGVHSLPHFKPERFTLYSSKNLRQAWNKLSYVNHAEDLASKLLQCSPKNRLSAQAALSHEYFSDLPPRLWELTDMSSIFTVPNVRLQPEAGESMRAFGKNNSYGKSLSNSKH
# [29] = biological target: AKT1 (human) (UniProt P31749)
# [30] = biological target: LTK (human) (UniProt P29376)
# [31] = biological target: HIPK2 (human) (UniProt Q9H2X6)
# [32] = biological target: STK32C (human) (UniProt Q86UX6)
# Chain of STK32C (human) (Q86UX6 whole entry, looked up): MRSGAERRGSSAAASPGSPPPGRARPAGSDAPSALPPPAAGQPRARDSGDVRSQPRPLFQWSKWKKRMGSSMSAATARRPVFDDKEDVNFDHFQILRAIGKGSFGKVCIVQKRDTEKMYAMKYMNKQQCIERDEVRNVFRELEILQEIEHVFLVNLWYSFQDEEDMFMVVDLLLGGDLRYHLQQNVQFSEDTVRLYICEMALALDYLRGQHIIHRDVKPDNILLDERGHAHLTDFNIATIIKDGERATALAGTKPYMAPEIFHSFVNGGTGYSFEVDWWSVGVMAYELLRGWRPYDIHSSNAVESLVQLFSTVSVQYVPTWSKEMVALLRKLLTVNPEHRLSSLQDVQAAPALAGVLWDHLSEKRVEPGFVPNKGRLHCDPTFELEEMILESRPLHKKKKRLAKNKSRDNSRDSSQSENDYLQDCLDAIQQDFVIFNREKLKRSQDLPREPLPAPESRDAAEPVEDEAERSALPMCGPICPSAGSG
# [33] = biological target: CLK3 (human) (UniProt P49761)
# Chain of CLK3 (human) (P49761 whole entry, looked up): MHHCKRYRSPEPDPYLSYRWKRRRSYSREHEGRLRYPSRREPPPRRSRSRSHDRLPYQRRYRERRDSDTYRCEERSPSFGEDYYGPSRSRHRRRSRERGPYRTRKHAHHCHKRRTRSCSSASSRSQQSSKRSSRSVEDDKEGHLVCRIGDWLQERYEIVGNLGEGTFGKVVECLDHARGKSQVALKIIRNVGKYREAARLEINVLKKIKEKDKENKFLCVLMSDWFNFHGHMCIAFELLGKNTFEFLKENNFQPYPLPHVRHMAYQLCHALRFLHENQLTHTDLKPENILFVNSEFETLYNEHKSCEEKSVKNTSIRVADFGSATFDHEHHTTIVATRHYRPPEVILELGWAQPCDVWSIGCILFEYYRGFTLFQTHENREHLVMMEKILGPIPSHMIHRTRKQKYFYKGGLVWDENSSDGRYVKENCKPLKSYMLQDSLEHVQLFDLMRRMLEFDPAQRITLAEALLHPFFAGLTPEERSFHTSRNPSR
# [34] = biological target: CDK11B (human) (UniProt P21127)
# [35] = biological target: AXL (human) (UniProt P30530)
# Chain of AXL (human) (P30530 whole entry, looked up): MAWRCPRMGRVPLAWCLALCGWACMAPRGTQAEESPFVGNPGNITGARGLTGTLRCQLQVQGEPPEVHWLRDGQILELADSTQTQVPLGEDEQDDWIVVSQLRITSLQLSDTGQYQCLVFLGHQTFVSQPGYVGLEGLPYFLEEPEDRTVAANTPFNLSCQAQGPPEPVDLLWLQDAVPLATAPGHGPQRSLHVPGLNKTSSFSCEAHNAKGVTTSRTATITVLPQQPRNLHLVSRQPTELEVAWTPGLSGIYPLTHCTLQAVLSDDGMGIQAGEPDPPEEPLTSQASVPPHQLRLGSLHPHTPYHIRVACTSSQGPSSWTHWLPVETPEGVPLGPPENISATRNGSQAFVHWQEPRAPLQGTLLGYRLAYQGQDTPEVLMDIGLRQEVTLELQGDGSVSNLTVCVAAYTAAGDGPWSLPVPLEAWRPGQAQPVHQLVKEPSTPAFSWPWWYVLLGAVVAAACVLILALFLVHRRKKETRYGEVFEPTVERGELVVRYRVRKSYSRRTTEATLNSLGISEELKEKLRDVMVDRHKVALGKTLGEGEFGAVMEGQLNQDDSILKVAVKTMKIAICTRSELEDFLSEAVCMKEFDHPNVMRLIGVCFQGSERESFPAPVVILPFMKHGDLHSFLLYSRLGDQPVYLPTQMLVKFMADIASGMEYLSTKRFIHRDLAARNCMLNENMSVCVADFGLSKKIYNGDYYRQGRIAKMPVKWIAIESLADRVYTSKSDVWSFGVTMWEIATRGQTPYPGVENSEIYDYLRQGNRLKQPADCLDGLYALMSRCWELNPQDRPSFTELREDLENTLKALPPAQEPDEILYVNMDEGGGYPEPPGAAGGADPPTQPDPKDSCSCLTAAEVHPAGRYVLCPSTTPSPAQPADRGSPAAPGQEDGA
# [36] = biological target: PIM1 (human) (UniProt P11309)
# [37] = biological target: MAP3K11 (human) (UniProt Q16584)
# [38] = biological target: TRPM6 (human) (UniProt Q9BX84)
# [39] = biological target: DYRK1A (human) (UniProt Q13627)
# [40] = biological target: MYLK4 (human) (UniProt Q86YV6)
# Chain of EPHB3 (human) (P54753 whole entry, looked up): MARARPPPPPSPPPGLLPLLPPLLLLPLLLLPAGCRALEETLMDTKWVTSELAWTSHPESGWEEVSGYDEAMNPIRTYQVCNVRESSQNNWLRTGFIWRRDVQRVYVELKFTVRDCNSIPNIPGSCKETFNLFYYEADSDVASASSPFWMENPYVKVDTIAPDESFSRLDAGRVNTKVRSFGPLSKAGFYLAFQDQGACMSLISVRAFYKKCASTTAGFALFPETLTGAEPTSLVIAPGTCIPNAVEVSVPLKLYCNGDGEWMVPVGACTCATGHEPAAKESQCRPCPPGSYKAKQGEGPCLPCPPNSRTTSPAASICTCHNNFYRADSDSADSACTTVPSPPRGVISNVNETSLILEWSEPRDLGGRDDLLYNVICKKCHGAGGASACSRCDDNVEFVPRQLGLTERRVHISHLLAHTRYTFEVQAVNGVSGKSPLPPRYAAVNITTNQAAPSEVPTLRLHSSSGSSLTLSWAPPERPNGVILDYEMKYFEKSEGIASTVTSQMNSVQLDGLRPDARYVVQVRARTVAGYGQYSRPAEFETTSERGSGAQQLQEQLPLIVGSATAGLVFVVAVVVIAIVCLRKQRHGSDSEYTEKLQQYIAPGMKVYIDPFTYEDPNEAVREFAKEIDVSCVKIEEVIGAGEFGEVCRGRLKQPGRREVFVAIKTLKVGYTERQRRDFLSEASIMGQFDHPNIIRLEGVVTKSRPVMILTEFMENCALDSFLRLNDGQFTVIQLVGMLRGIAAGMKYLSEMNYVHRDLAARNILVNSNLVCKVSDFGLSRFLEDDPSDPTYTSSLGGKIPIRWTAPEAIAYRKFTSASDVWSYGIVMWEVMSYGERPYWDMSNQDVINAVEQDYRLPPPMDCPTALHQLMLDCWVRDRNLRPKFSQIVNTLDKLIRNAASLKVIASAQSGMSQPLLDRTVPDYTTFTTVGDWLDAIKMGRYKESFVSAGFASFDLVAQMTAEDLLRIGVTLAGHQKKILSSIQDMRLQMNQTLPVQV
smiles,measurement,setting,value
N#C/C(=C1/Nc2ccccc2S1)c1ccnc(NCCc2cccnc2)n1,"kinase still bound, per cent of control",[1],100%
same,"kinase still bound, per cent of control",[2],100%
same,"kinase still bound, per cent of control",[3],100%
same,"kinase still bound, per cent of control",[4],100%
same,"kinase still bound, per cent of control",[5],100%
same,"kinase still bound, per cent of control",[6],85%
same,"kinase still bound, per cent of control",[7],86%
same,"kinase still bound, per cent of control",[8],54%
same,"kinase still bound, per cent of control",[9],100%
same,"kinase still bound, per cent of control",[10],94%
same,"kinase still bound, per cent of control",[11],80%
same,"kinase still bound, per cent of control",[12],100%
same,"kinase still bound, per cent of control",[13],8.5%
same,"kinase still bound, per cent of control",[14],100%
same,"kinase still bound, per cent of control",[15],100%
same,"kinase still bound, per cent of control",[16],55%
same,"kinase still bound, per cent of control",[17],74%
same,"kinase still bound, per cent of control",[18],77%
same,"kinase still bound, per cent of control",[19],60%
same,"kinase still bound, per cent of control",[20],100%
same,"kinase still bound, per cent of control",[21],100%
same,"kinase still bound, per cent of control",[22],100%
same,"kinase still bound, per cent of control",[23],100%
same,"kinase still bound, per cent of control",[24],100%
same,"kinase still bound, per cent of control",[25],100%
same,"kinase still bound, per cent of control",[26],100%
same,"kinase still bound, per cent of control",[27],3.7%
same,"kinase still bound, per cent of control",[28],100%
same,"kinase still bound, per cent of control",[29],100%
same,"kinase still bound, per cent of control",[30],100%
same,"kinase still bound, per cent of control",[31],1.4%
same,"kinase still bound, per cent of control",[32],99%
same,"kinase still bound, per cent of control",[33],76%
same,"kinase still bound, per cent of control",[34],96%
same,"kinase still bound, per cent of control",[35],100%
same,"kinase still bound, per cent of control",[36],4.4%
same,"kinase still bound, per cent of control",[37],93%
same,"kinase still bound, per cent of control",[38],100%
same,"kinase still bound, per cent of control",[39],0%
same,"kinase still bound, per cent of control",[40],16%
